The experiment deals with T1, mitochondrial respiratory chain complex III (CxIII, coenzyme Q-cytochrome c oxidoreductase) (Bos taurus, UniProt P00157+P13272).
T1 construct: gene MT-CYB; native complex in mitochondria isolated from bovine heart
As to the kind of experiment: spectrophotometric initial rates of cytochrome c reduction with graded decylubiquinol in isolated mitochondria; reciprocal and Dixon plots. It counts as biochemical. An excerpt:
spectrophotometric initial rates of cytochrome c reduction with graded decylubiquinol in isolated mitochondria; reciprocal and Dixon plots on mitochondrial respiratory chain complex III (CxIII, coenzyme Q-cytochrome c oxidoreductase) | indicate a competitive modality of inhibition.

For the molecule `C[C@]12CC[C@H]3[C@@H](CCC4=CC(=O)CC[C@@H]43)[C@@H]1CC[C@@H]2O` [ND, nandrolone], the Ki is around 300 µM.

In general, Ki refers to a measure of affinity in units of concentration, obtained from inhibition or displacement. Higher therefore signals lower affinity.
